# Measured values taken from patent publication US12514845B2, “Ionic-liquid-based formulations for the prevention or treatment of neurological diseases” (Universidade De Aveiro, priority 2022, dated 2026).
# Like-named read-outs stand apart in the source and are kept apart here.
# Legend:
# [1] = system: N27 dopaminergic neuronal cells exposed to 6OHDA; details: 20 μM pretreatment 2.5 h before 50 μM 6OHDA, 24 h (FIG. 7)
# Method: (§2) The data are presented as percentage of control and presented as the mean±SEM of at least five repetitions of three independent experiments (n=3). Statistical analysis was performed using one-way ANOVA (non-parametric analysis), followed by the Kruskal-Wallis test, followed by Dunn's multiple comparison test. **p<0.01 compared to CTR or the group of cells exposed to cholinium chloride only +++p<0.001 compared to 6OHDA.
# [2] = system: N27 dopaminergic neuronal cells exposed to MPP+; details: 24 h (FIG. 8)
# Text: The data are presented as percentage of control as the mean±SEM of at least five repetitions of three independent experiments (n=3).
# [3] = system: dopaminergic neurons in the substantia nigra (SN); assay: 6OHDA intrastriatal injection mouse model of PD, TH+ neuron count in SN; type: in vivo; details: 6-OHDA 10 μg/2 μL right striatum, day 7, vs control group (FIG. 10)
# Method: In an embodiment, the biological neuroprotective effect of [Chol]2[N1(4)inh]+N1(4)inh+N1(4)inh when administrated via brain intraventricular infusion route was evaluated in an mouse model for PD induced by the intracerebral injection of 6OHDA, and the number of dopaminergic neurons in the substantia nigra counted.
# In an embodiment, Male C57BL/6 mice were anesthetized and placed in the digital stereotaxic frame. Once the mouse skull was exposed, and using a digital coordinates system, injection and infusion sites were determined setting the zero at the bregma point. Hereupon, an injection of 6-OHDA (10 μg/2 μL of ascorbic acid 0.1% v/v) was performed in the right striatum (ST) of each animal using the coordinates: medial-lateral (ML): −2 mm; anterior-posterior (AP): 0.6 mm; dorsoventral (DV): −3.0 mm, using a Hamilton syringe at speed of 0.2 μL/min. The delivery of 0.2 mg/kg/day of [Chol]2[N1(4)inh]+N1(4)inh+N1(4)inh was performed as describe above. […]
# The results are expressed as a percentage of Saline (Group (1) which are animals exposed only to saline solution) and represented as the mean±SEM of at least 3 independent experiments (n=3-4). […]
# in vitro = details: rat
# Method: as §2
# [4] = system: male wistar rats exposed to PQ; type: in vivo; details: PQ 2.5 mg/kg/day subcutaneous 4 weeks
# Method: (§1) In an embodiment, the biological neuroprotective effect of [Chol]2[N1(4)inh]+N1(4)inh+N1(4)inh when administrated via brain intraventricular infusion route was evaluated in a rat model for PD induced by the exposure to a low chronic dose of PQ, through the analysis of the progression of behavior dysfunction. In this model, the animals are exposed to the toxin during 30 days (4 weeks) and then keeped alive during more 30 days to allow the pathology to progress (Total 8 weeks). The administration of [Chol]2[N1(4)inh]+N1(4)inh started after the first 30 exposure to PQ, via brain intraventricle or intranasal route and lasted the second 30 days. Animals were euthanized at week 8.
# In an embodiment, male wistar rats 8-12 week-old were housed in a temperature/humidity-controlled environment under 12 h light/dark cycle with free access to water and food and subjected to subcutaneous chronic administration of PQ, that was carried out using osmotic minipumps (Alzet Durect, Cupertino, CA) at a dose of 2.5 mg/kg/day with a fluid delivery rate of 0.25 μL/hr for a period of four weeks (Alzet model 2004, large pumps). Control groups were implanted with minipump filled with sterile saline, the vehicle used to dissolve PQ. […] Once the rat skull was exposed and, using a digital coordinates system, the infusion sites were determined setting the zero at the bregma point. […] To evaluate the neuroprotective function of the IL-based formulation when infused in brain ventricle, behavior function was evaluated. Motor coordination, balance and grip strength were analyzed using a rat rotarod apparatus model 47700 (Ugo Basile, Comerio, Italy). […] The training was performed in 2 consecutive days, on each day 4 test trials were assessed, each lasting 5 min. […] The rotarod test was performed under an accelerating protocol (4-40 RPM) for 5 min, and the latency to fall was recorded using a specific software. […]
# [5] = system: male wistar rats exposed to PQ; type: in vivo; details: PQ 2.5 mg/kg/day subcutaneous 4 weeks, week 8, vs control group (FIG. 22)
# Method: as §1, with “via intranasal” for “via brain intraventricular infusion”, “in” for “in a”, “of PQ and” for “of PQ,”
# In an embodiment, male wistar rats 8-12 week-old subjected to subcutaneous chronic administration of PQ, that was carried out using osmotic minipumps (Alzet Durect, Cupertino, CA) at a dose of 2.5 mg/kg/day with a fluid delivery rate of 0.25 μL/hr for a period of four weeks (Alzet model 2004, large pumps). […] To evaluate the neuroprotective function of the IL-based formulation when administrated via intranasal route, behavior function was evaluated. Motor coordination, balance and grip strength were analyzed using a rat rotarod apparatus model 47700 (Ugo Basile, Comerio, Italy). […] The training was performed in 2 consecutive days, on each day 4 test trials were assessed, each lasting 5 min. […]
# [6] = Afonso 2017, MSc thesis; cited from earlier work
# dopaminergic neurons = details: PD models; Afonso 2017; cited from earlier work
structure (smiles),measurement,setting,value
C[N+](C)(C)CCO.[Cl-] [cholinium chloride],prevention of 6OHDA-induced neurotoxicity (cell viability),[1],not prevented
same,prevention of MPP+ dopaminergic neurotoxicity (cell viability),[2]; 20 μM pretreatment 2.5 h before 10 μM MPP+,did not exert any protective effect
"NCCc1cc(O)c(O)cc1O [6OHDA, 6-hydroxydopamine]",reduction in the number of SN dopaminergic neurons,[3],45%
same,"cytotoxicity at 24 h, 50 µM",in vitro,45%
"C[n+]1ccc(-c2cc[n+](C)cc2)cc1 [PQ, paraquat]",reduction in the distance travelled (open-field),"[4]; week 8, vs control (FIG. 20)",55%
same,reduction of speed (open-field),"[4]; week 8, vs control (FIG. 21)",50%
same,reduction in the latency to fall (rotarod),"[4]; week 8, vs control group (FIG. 19)",43%
same,reduction in the latency to fall (rotarod),[5],47%
"C[n+]1ccc(-c2ccccc2)cc1 [MPP+, 1-methyl-4-phenylpyridinium]",loss of N27 cells viability,[2]; 10 μM MPP+,45%
"COc1cc(C(C)=O)ccc1[O-].C[N+](C)(C)CCO [[Chol][Apo], cholinium apocynate]",increase in water solubility versus Apo,[6],50 fold
same,6OHDA-induced toxicity in dopaminergic neurons,dopaminergic neurons,significant reduction
